Test results from ChEMBL document CHEMBL3421584, “Allosteric modulators: an emerging concept in drug discovery” (ACS Med Chem Lett, 2015).

What follows are molecules tested against Metabotropic glutamate receptor 2 (Homo sapiens) (UniProt Q14416) (assay: Negative allosteric modulation of human mGluR2 receptor expressed in CHO cell membranes assessed as inhibition of glutamate responses after 30 mins by [35S]GTPgammaS binding assay).
Assay type: functional

Sequence of Metabotropic glutamate receptor 2 (Homo sapiens) (Q14416 19-872 limits assumed): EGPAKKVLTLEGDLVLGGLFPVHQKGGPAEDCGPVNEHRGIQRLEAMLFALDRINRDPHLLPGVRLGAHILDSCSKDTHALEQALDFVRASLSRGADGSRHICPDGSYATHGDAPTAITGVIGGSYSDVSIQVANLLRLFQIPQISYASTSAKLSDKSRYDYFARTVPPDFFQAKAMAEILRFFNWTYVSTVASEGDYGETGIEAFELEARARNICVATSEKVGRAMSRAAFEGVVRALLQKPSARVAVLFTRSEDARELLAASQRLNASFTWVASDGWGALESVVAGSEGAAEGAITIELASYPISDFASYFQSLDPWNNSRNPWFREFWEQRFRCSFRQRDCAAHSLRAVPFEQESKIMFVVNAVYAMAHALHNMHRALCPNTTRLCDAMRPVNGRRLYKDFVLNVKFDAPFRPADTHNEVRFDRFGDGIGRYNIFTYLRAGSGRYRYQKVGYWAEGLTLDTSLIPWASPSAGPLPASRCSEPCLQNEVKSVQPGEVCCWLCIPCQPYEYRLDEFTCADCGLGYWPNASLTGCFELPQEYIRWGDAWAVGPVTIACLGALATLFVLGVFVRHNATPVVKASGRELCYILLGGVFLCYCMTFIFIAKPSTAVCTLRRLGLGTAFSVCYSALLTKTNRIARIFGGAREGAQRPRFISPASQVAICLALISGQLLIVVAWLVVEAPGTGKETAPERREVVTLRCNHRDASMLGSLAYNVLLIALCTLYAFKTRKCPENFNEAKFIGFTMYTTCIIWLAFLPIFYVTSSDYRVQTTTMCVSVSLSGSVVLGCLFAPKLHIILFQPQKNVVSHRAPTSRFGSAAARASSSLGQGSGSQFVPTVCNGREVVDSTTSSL

Emax	SMILES
49%	Cc1cc(-c2cnn3c2C(=O)N(c2ccc(C(C)O)cc2)C[C@@H]3C)ccn1 (some centres undefined)
109%	C[C@H]1CN(c2ccc(C(F)(F)F)c(Cl)c2)C(=O)c2c(-c3ccnc(C#N)c3)cnn21
106%	Cc1cc(-c2cnn3c2C(=O)N(c2ccc(C(F)(F)F)cc2)C[C@@H]3C)ccn1
106%	CCC1CN(c2ccc(C(F)(F)F)cc2)C(=O)c2c(-c3ccnc(C)c3)cnn21 (centres undefined)
